According to patent publication US20230002505A1, “TREATMENT OF THERAPY-RESISTANT HER-2 POSITIVE BREAST CANCER” (OREGON HEALTH & SCIENCE UNIVERSITY, priority 2017, published 2023):

Legend:
Format in all cases: cell-based, human
HCC-1954 cells = test: In vitro proliferation of parental HCC-1954 cells after panitumumab treatment; settings: parental HCC-1954, HER-2 positive, trastuzumab and lapatinib resistant; blocking HER-1 function
21MT1 cells = test: In vitro proliferation of parental 21MT1 cells after panitumumab treatment; settings: parental 21MT1, HER-2 positive, trastuzumab and lapatinib resistant; blocking HER-1 function
JimT1 cells = test: In vitro proliferation of parental JimT1 cells after panitumumab treatment; settings: parental JimT1, HER-2 positive, trastuzumab and lapatinib resistant; blocking HER-1 function

Measured: proliferation in vitro

Panitumumab
decreased proliferation: all assays above
